Data set [1] is described as follows: In vitro metabolic stability, human liver microsomes. As to conditions: 1 mg/mL liver microsome protein, 37° C. The format is in vitro ADME. The procedure: (§1) The in vitro metabolic stability of the compounds disclosed herein was determined through incubation of liver microsomes of various species. A proper amount of test compound was added into a liver microsome reaction system (1 mg/mL liver microsome protein, 25 U/mL glucose-6 phosphate dehydrogenase, 1 mM NADP, 6 mM D-glucose 6-phosphate and 5 mM MgCl2), and then the mixture was incubated in a water bath kettle at 37° C. to start reaction. At each time point, 100 μL of the reaction system was added into a centrifuge tube containing 400 μL of internal standard working solution (containing a 200 ng/mL solution of dexamethasone, diclofenac, tolbutamide and labetalol in acetonitrile) precooled at 0° C. so as to stop the reaction, and the mixture was then centrifuged at 10,000 g for 10 min at 4° C. The supernatant was collected for LC-MS assay so as to obtain the values of in vitro metabolic half-life of the test compounds in liver microsomes of various species.

Data set [2] is described as follows: In vitro metabolic stability, rat liver microsomes. The format is in vitro ADME. Conditions: 1 mg/mL liver microsome protein, 37° C. The method, then: as §1
For orientation: Microsomes from liver hold many membrane-bound enzymes, among them those of drug oxidation.

A short description of data set [3]: In vitro metabolic stability, mouse liver microsomes. The format is in vitro ADME. As to conditions: 1 mg/mL liver microsome protein, 37° C. The method, then:
as §1

Data set [4] can be described thus: In vitro cytotoxicity assay in HepG2 cells, CCK-8 method. In kind it is cell-based. As to conditions: human, 48 h incubation. The procedure:
In vitro cytotoxicity assay for the compounds disclosed herein was performed in HepG2 cells using the CCK-8 method. HepG2 cells (Beina Bio) in the logarithmic growth phase were collected, the concentration of cell suspension was adjusted, and then the cells were plated on a 96-well cell culture plate at 50,000 cells/well. • The cells were then incubated overnight in a cell incubator (5% CO2, 37° C.), and after 80-90% cell confluence was achieved, test compounds or vehicle (DMSO) at various concentration gradients were added after medium change. The resulting mixture was incubated in the cell incubator (5% CO2, 37° C.) for 48 h. After the treatment, the medium in the plate was discarded. The plate was washed twice with PBS, added with CCK-8 working solution (Beyotime) at 100 μL per well, and then incubated at 37° C. for 1.5 h in the dark. Absorbance at OD450nm was measured for each well on a microplate reader, and CC50 value of each compound was analyzed and calculated.

Data set [5] has as its target T1, hLPAR1 (human lysophosphatidic acid receptor 1) (Homo sapiens, UniProt Q92633).
T1 construct: expressed in transfected cells
Nature of the data set: FLIPR intracellular calcium assay, hLPAR1 expressed in CHO-K1 cells. The format is cell-based. Conditions: antagonism of 1 μM LPA-induced calcium increase, CHO-K1 cells expressing hLPAR1; read-out: LPAR1 IC50. The method, then: The antagonist property of the compounds disclosed herein was determined using the FLIPR (fluorescence imaging plate reader) method, wherein the compounds are inhibitors for the intracellular calcium increase induced by activation of hLPAR1 (human lysophosphatidic acid receptor 1, accession No. NM_001401.4) expressed in CHO-K1 cells (Chinese hamster ovary cells K1, ATCC).
CHO-K1 cells stably expressing hLPAR1 were cultured in F-12 medium containing 10% FBS (fetal bovine serum, Gibco, 10099-141), 1% penicillin-streptomycin (Gibco, 15140-122) and 0.4 mg/mL hygromycin B (Gibco, 10687010) in a cell incubator (37° C., […]). During 18-24 h prior to the FLIPR experiment, cells at 250,000 cells/mL were seeded into a 96-well plate (25,000 cells/well) and incubated overnight in the cell incubator. On the day of the experiment, the medium was discarded and the cells were washed in a FLIPR buffer (0.3 mL of probenecid (Thermo, P36400), 0.6 mL of 1 M HEPES (Invitrogen, 15630080) and 29.1 mL of HBSS (Invitrogen, 14065056) per 30 mL of buffer). Each well was added with 75 μL of 1 mM Fluo-4 AM fluorescent dye (Thermo, F14202) and then the cells were subjected to dye-loading incubation at 37° C. for 1.0 h. The 96-well plate was then washed once with buffer, added with a buffer containing a test compound or vehicle at 50 μL per well and then incubated for 30 min at room temperature. The cell plate was then placed in the FLIPR for baseline fluorescence measurements (excitation at 485 nm and emission at 525-535 nm). An agonist (oleoyl-L-α-lysophosphatidic acid sodium salt (Sigma, L7260) at a final concentration of 1 μM) or a vehicle (ultrapure water) was then added at 50 μL/well, fluorescence values were measured for 2 min at 1-second intervals, and finally the output fluorescence counts were analyzed.
(In general: A change in cytosolic calcium serves as a functional read-out for many receptors and channels.)

The subject of data set [6] is A2058 (human melanoma cells). Nature of the data set: A2058 cell scratch assay (cell migration inhibition). The format is cell-based. Conditions: A2058 scratch area 0 h vs 24 h, 10 μM LPA, read-out: Cell migration inhibition rate. The procedure: The activity of the compounds disclosed herein at the cell level in vitro is evaluated by A2058 (human melanoma cells, Beina Bio, BNCC341099) cell scratch assay. The inhibitory activity of the compounds against LPAR1 can be reflected by inhibition of cell scratch healing.
A2058 cells in a T75 cm^2 cell culture flask were digested and gently pipetted into single cells, adjusted to a cell density of 4×10^5 cells/mL, and then seeded into a 24-well plate. After the cell confluence reached 80%, the cell culture plate was taken out and the original medium was discarded. Serum-free medium was then added, and the cells were starved overnight in an incubator (37° C., 5% CO2). The cell culture plate was then taken out, and cell scratches were made along the diameter of the wells using a 200 μL pipette tip. The cell culture plate was then added with 500 μL of serum-free medium and then shaken gently to wash away the residual cells on the scratched surface, and this was repeated twice. The medium was discarded and 500 μL of 1% FBS medium containing the compound was then added, and the mixture was incubated at 37° C. for 30 min. […] Olympus CKX53 was used to observe the scratches, and MShot image analysis system was used to take pictures and measure the scratch area at 0 h. Then the cell culture plate was incubated in the incubator (37° C., 5% CO2). 24 h later, the scratches were observed again with Olympus CKX53, and MShot image analysis system was used to take pictures and measure the scratch area at 24 h. Cell migration inhibition rate was calculated according to the following formula: […]

Molecules are shown by their SMILES. Where only a bound is given, the exact number is not on record here.

What is called half-life is the time needed for the level to fall by half in the phase considered. The low end stands for rapid decline, the high end for slow decline. A word on the CC50: it is the concentration at which the toxic effect on the cells reaches its halfway point. As usually defined, the IC50 is the midpoint of a concentration-inhibition curve.

T1 sequence (Q92633 whole entry): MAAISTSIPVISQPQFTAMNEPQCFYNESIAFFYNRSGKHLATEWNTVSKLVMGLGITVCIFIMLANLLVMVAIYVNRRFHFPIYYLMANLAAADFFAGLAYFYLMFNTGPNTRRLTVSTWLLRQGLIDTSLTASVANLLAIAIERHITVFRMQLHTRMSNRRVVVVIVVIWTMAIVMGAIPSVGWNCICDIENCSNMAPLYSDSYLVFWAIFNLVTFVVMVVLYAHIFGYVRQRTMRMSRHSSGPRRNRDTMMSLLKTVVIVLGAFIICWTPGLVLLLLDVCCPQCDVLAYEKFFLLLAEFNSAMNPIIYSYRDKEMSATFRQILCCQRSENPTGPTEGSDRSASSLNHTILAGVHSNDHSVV

For `CN(C(=O)CCc1c(-c2ccc(O[C@H]3CCC[C@H](C(=O)O)C3)c(C(F)(F)F)n2)nnn1C)C1CCCC1` (racemic) [Compound 27-A, (+/−)-(1S,3S)-3-((6-(5-(3-(cyclopentyl(methyl)amino)-3-carbonylpropyl)-1-methyl-1H-1,2,3-triazol-4-yl)-2-(trifluoromethyl)pyridin-3-yl)oxo)cyclohexane-1-carboxylic acid], the half-life in data set [1] came to 232 min; in data set [2] it was 57 min; in data set [3], 192 min. In data set [4], this molecule yielded a CC50 at 48 h above 200000 nM. Moreover, the IC50 in data set [5] was at most 50 nM. In addition, the inhibition in data set [6] was 50 to 70%.

Turning to `CN(C(=O)OC1CCCC1)c1c(-c2ccc(O[C@H]3CCC[C@H](C(=O)O)C3)cc2)nnn1C` (racemic) [Compound 31, (+/−)-(1S,3S)-3-(4-(5-(((cyclopentyloxy)carbonyl)(methyl)amino)-1-methyl-1H-1,2,3-triazol-4-yl)phenoxy)cyclohexane-1-carboxylic acid], the half-life in data set [1], in data set [2] and in data set [3] was above 30 min each time. In data set [4], this molecule came in with a CC50 at 48 h above 200000 nM. In addition, the IC50 in data set [5] lay within 50 to 300 nM. Besides, the inhibition in data set [6] was in the range of 30 to 50%.

For `CN(Cc1ccccc1)C(=O)OCc1c(-c2ccc(Oc3cc(Cl)ccc3C(=O)O)cc2)nnn1C` [Compound 7, 4-chloro-2-(4-(5-(((benzyl(methyl)carbamoyl)oxo)methyl)-1-methyl-1H-1,2,3-triazol-4-yl)phenoxy)benzoic acid], the half-life in data set [1] is above 30 min; in data set [2], below 30 min; in data set [3], above 30 min. This molecule displayed a CC50 at 48 h in data set [4] above 200000 nM. In addition, the IC50 in data set [5] is 300 to 10000 nM. Further, in data set [6], the inhibition fell in the range of 0 to 30%.

As to `CN(C(=O)NCc1c(-c2ccc(O[C@H]3CCC[C@H](C(=O)O)C3)c(F)c2)nnn1C)C1CCCC1` [Compound 25], the half-life in data set [1], in data set [2] and in data set [3] was above 30 min in each case. The CC50 at 48 h in data set [4] was above 200000 nM. Moreover, in data set [5], the IC50 was 50 to 300 nM. In data set [6], the inhibition is 30 to 50%.

The record behind these values is patent US12378204B2, “Triazole compounds and preparation method therefor and use thereof” (WUHAN LL SCIENCE AND TECHNOLOGY DEVELOPMENT CO., LTD., priority 2019, dated 2025).
